# Measured values as given in publication PMC11435625, “In Vitro Hepatic Clearance Evaluations of Per- and Polyfluoroalkyl Substances (PFAS) across Multiple Structural Categories” (Toxics, 2024).
# What was measured:
# [1] = tested on: pooled primary human hepatocyte suspensions; test: Bayesian (MCMC, invitroTKstats) analysis of hepatic clearance data; conditions: for Clint.1.Med: Level-4 Bayesian estimate, posterior median, Clint.1 series (Clint.10 all NA)
# From the text: Markov Chain Monte Carlo was employed in a Bayesian analysis to estimate uncertainty of the hepatic clearance point measures as previously described, but with some modifications [10]. Briefly, after organizing PFAS-level data into a single file, the relationship between the relevant measurement process parameters was described in a graphic model in JAGS language [13] interfaced through R. For hepatic clearance data, the model describes the PFAS-specific mass spectrometric response factor between analyte peak ratio (to internal standard) and chemical concentration. […] The assumed prior for whether the chemical degraded abiotically in vitro followed a Bernoulli distribution with a 5% chance of abiotic degradation. Separate biotic and abiotic components for chemical elimination were estimated, each with a slope following an assumed uniform prior distribution bounded between the zero and the -log (limit of quantitation/Ctest). In scenarios where an external calibration without internal standard was used, the response factor was calculated using the analyte peak alone, introducing additional uncertainty due to the inability to normalize for recovery issues. The model was analyzed jointly by JAGS using five Markov chains. Convergence was identified by requiring the five chains to be consistent, as indicated by the potential scale reduction factor [14] being less than 1.1. The analysis was performed using EPA-developed R package invitroTKstats, available upon request.
# plasma protein = conditions: fraction unbound in plasma, input for IVIVE calculations; cited from earlier work
# [2] = IVIVE: steady-state concentration (Css), generic HTTK model; design: species or system human; conditions: for Css (mg/L) / Css (uM): Assuming 1 mg/kg/day dose rate, BW 70 kg; for CLhep: QL 1500000 uL/min; for Fub: fub=fup/(B:P), Fub set to 1 if needed; for CLint: scaled to whole liver: HPGL 110 mill cells/g, Vl 1596 g
# Experimental: IVIVE was performed as previously described to calculate human steady-state concentrations (Css). Briefly, experimental plasma protein binding data presented elsewhere were transformed to fraction unbound in blood using blood-to-plasma partitioning values. Experimental Clint values generated here are used in conjunction with relevant liver scalars to scale up to estimate whole liver clearance. […] Once Css values were established, these were used with the PFAS-specific in vitro POD data to calculate the administered equivalent doses (AEDs) using reverse dosimetry. […] The fifth-percentile AC50 value was used to define the in vitro POD. All relevant inputs, scalars, and calculations are provided in Supplementary Information, as indicated in the results.
# [3] = tested on: pooled primary human hepatocyte suspensions; test: Hepatic clearance assay (substrate depletion, LC-MS); conditions: in µL/min/10^6 cells; for CLint for HTTK: CLint value carried into HTTK/IVIVE; for in vitro CLint exp assay / Unadj Clint: pooled primary human hepatocyte suspensions; for Unadj Clint: unadjusted hepatic intrinsic clearance, Table S4
# Experimental: The rate of hepatic clearance was determined as previously described for a set of PFAS [11]. Analysis was conducted across two laboratories at the Division of Translational Toxicology (DTT) at the National Institute of Environmental Health Sciences (NIEHS) and the Center for Computational Toxicology and Exposure at the USEPA. The PFAS analyzed in each lab can be found in the Supplementary Materials.
# The hepatic clearance assay was performed at both the DTT and EPA laboratories as described below. The pooled human hepatocyte suspensions used in this work were purchased commercially and meet the ethical and scientific standards described in the Human Ethics Rule (40 CFR 26). The suspensions were prepared from hepatocytes obtained from de-identified donors by a commercial vendor.
# PFAS stock solutions prepared in DMSO were added to prewarmed William’s E medium to make a 2X working stock solution (2 µM). […] The working stock solutions were then transferred to a 96-well polypropylene plate and placed in an incubator at 37 °C with 5% carbon dioxide prior to adding cells. Cryopreserved pooled primary human hepatocyte suspensions (50-donor pool, mixed gender; BioIVT; Westbury, NY, USA) were thawed and transferred to vials containing hepatocyte thawing medium. After centrifuging for 5–10 min at 100× g, thawing medium was removed, being careful not to disturb the cell pellet. The primary human hepatocytes were then resuspended in pre-warmed complete Williams E medium to achieve a cell density of ~1.0 × 10^6 viable cells/mL as determined by Trypan Blue exclusion. Cells were then added to the 96-well incubation plates containing PFAS to achieve a final density of ~0.5 × 10^6 viable cells/mL and a 1 μM assay concentration (Ctest), then placed in incubator on a shaker at 300 rpm. Triplicate samples were removed from the incubator at time points ranging from 0 to 240 min and quenched with a total crash in 2–3 volumes of ice-cold acetonitrile. Samples were spun at 4000× g for 20 min, and supernatants were transferred to new tubes and stored at <−70 °C until analysis. Media-only (no cell) and/or heat-inactivated hepatocytes were included as negative controls for each chemical to evaluate and estimate chemical loss due to nonmetabolic processes (e.g., hydrolysis). Phenacetin was included in all runs as an assay reference compound; EPA also included propranolol as an additional reference compound.
# Assay samples were diluted in mobile phase and analyzed using a Thermo Vanquish UPLC system with a Thermo Hypersil Gold aQ C18 column (100 × 2.1 mm, 1.9 […], Thermo Fisher Scientific Inc.) coupled to a Q Exactive Plus mass spectrometer. Gradient elution was used in the chromatographic separations using water with 20 mM ammonium acetate (mobile phase A) and methanol (mobile phase B), with the following gradient program: 0.5–7 min, 30%–90% B; 7–8 min, 90% B; 8–9 min, 90%–30% B; and 9–10 min, 30% B. The first minute of each injection was diverted to waste to avoid introduction of excessive salts from incubation medium. Analysis was detected in negative ion mode. Samples were quantified against an external, matrix-matched calibration curve. Additional methodologic information is available in Table S2.
# To perform SPE, a positive-pressure manifold was employed along with Oasis WAX µElution plates and Oasis HLB 30 mg plates (Waters, Milford, MA, USA) for PFAS and positive-control extraction, respectively. […] The sorbent was then washed with 1% formic acid and water. Samples were eluted in 2% ammonia in methanol for analysis. Similarly, HLB plates were conditioned with methanol and water before sample was loaded onto the sorbent. The wells were then washed with 5% methanol in water and water before elution in methanol. For samples not undergoing SPE, the supernatant of the crashed assay sample was diluted in mobile phase prior to analysis. The first 1.5 min of the run was diverted to waste to prevent salt contamination.
SMILES,Clint.1.Med [1],Unadj Clint [3],other results
CNS(=O)(=O)C(F)(F)C(F)(F)C(F)(F)C(F)(F)C(F)(F)C(F)(F)C(F)(F)C(F)(F)F,48.7,,
"O=C(O)C(F)(F)OC(F)(F)C(F)(F)OC(F)(F)C(F)(F)C(F)(F)C(F)(F)F [Perfluoro-3,6-dioxadecanoic acid]",0,0.00,Mean fu (plasma protein): 0.0007; Css (mg/L) [2]: 344.78 mg/L; Css (uM) [2]: 773.10 µM; CLhep [2]: 0.000 L/h; Fub [2]: 0.001273; CLint [2]: 0 µL/min; CLint for HTTK [3]: 0; in vitro CLint exp assay [3]: 0
NS(=O)(=O)C(F)(F)C(F)(F)C(F)(F)C(F)(F)C(F)(F)C(F)(F)F [Perfluorohexanesulfonamide],0,0.00,
O=C(O)C(F)(F)C(F)(F)OC(F)(F)F [Perfluoro-3-methoxypropanoic acid],0,0.00,
O=C(O)C(F)(F)C(F)(F)C(F)(F)C(F)(F)F [Perfluoropentanoic_acid],0,,
O=C(O)C(F)(F)C(F)(F)C(F)(F)F [Perfluorobutanoic acid (PFBA)],0,,Mean fu (plasma protein): 0.093; Css (mg/L) [2]: 2.60 mg/L; Css (uM) [2]: 12.13 µM; CLhep [2]: 0.000 L/h; Fub [2]: 0.1691; CLint [2]: 0 µL/min; CLint for HTTK [3]: 0; in vitro CLint exp assay [3]: 0
O=S(=O)(O)C(F)(F)C(F)(F)OC(F)(F)C(F)(F)F [Perfluoro(2-ethoxyethane)sulfonic acid],266,5.51,Mean fu (plasma protein): 0.0015; Css (mg/L) [2]: 16.68 mg/L; Css (uM) [2]: 52.79 µM; CLhep [2]: 0.158 L/h; Fub [2]: 0.002727; CLint [2]: 967336 µL/min; CLint for HTTK [3]: 5.51; in vitro CLint exp assay [3]: 5.51
O=S(=O)([O-])C(F)(F)C(F)(F)C(F)(F)C(F)(F)C(F)(F)C(F)(F)F.[K+] [Potassium perfluorohexanesulfonate],0,0.00,
O=C(O)C(F)(F)C(F)(F)F [Perfluoropropanoic_acid],0,,
O=C(Cl)C(F)(F)C(F)(F)C(F)(F)C(F)(F)C(F)(F)C(F)(F)F [Perfluoroheptanoyl chloride],0,0.00,
N.O=C(O)C(F)(F)C(F)(F)C(F)(F)C(F)(F)C(F)(F)C(F)(F)C(F)(F)F [Ammonium_perfluorooctanoate],10.8,,
O=C(O)C(F)(F)OC(F)(F)C(F)(F)OC(F)(F)F,0,,Mean fu (plasma protein): 0.0031; Css (mg/L) [2]: 77.85 mg/L; Css (uM) [2]: 263.04 µM; CLhep [2]: 0.000 L/h; Fub [2]: 0.005636; CLint [2]: 0 µL/min; CLint for HTTK [3]: 0; in vitro CLint exp assay [3]: 0
O=C(O)CCC(F)(F)C(F)(F)C(F)(F)F [3:3 Fluorotelomer carboxylic acid],0,0.00,
O=S(=O)([O-])C(F)(F)C(F)(F)C(F)(F)C(F)(F)C(F)(F)C(F)(F)C(F)(F)C(F)(F)F.[K+] [Potassium_perfluorooctanesulfonate],0,,
O=C(O)C(F)(F)C(F)(F)C(F)(F)C(F)(F)C(F)(F)F [Perfluorohexanoic acid (PFHxA)],0,,Mean fu (plasma protein): 0.0068; Css (mg/L) [2]: 35.49 mg/L; Css (uM) [2]: 113.04 µM; CLhep [2]: 0.000 L/h; Fub [2]: 0.01236; CLint [2]: 0 µL/min; CLint for HTTK [3]: 0; in vitro CLint exp assay [3]: 1.62
O=C(O)C(F)(F)C(F)(F)C(F)(F)OC(F)(C(F)(F)F)C(F)(F)F [Perfluoro-4-isopropoxybutanoic_acid],0,,

SMILES,Clint.1.Med [1],Unadj Clint [3],other results
O=S(=O)(O)C(F)(F)C(F)(F)C(F)(F)C(F)(F)C(F)(F)C(F)(F)F [Perfluorohexanesulfonic_acid],0,,
O=C(O)C(F)(F)C(F)(F)C(F)(F)C(F)(F)C(F)(F)C(F)(F)C(F)(F)C(F)(F)C(F)(F)C(F)(F)C(F)(F)C(F)(F)F [Perfluorotridecanoic_acid],0,,
O=C(Cl)C(F)(F)C(F)(F)C(F)(F)C(F)(F)C(F)(F)C(F)(F)C(F)(F)F [Pentadecafluorooctanoyl chloride],0,0.00,
"O=C(O)C=C(C(F)(F)F)C(F)(F)F [3,3-Bis(trifluoromethyl)-2-propenoic acid]",0,1.82,
CNS(=O)(=O)C(F)(F)C(F)(F)C(F)(F)C(F)(F)C(F)(F)C(F)(F)C(F)(F)C(F)(F)F [N-Methylperfluorooctanesulfonamide],,33.23,"metabolic clearance call, experimental and Bayesian analyses in agreement ([1]; both analyses agreed): metabolized"
O=C(O)C(F)(F)C(F)(F)C(F)F [4H-Perfluorobutanoic_acid],0,,
O=C(O)C(F)(F)C(F)(F)C(F)(F)C(F)(F)C(F)(F)C(F)(F)C(F)(F)C(F)(F)C(F)(F)C(F)(F)C(F)(F)C(F)(F)C(F)(F)F [Perfluorotetradecanoic acid (PFTeDA)],0,,
O=C(O)C(F)(F)C(F)(F)C(F)(F)C(F)(F)C(F)(F)C(F)(F)C(F)(F)F [Perfluorooctanoic_acid],0,,
O=S(=O)([O-])C(F)(F)C(F)(F)C(F)(F)C(F)(F)C(F)(F)C(F)(F)C(F)(F)C(F)(F)C(F)(F)C(F)(F)F.[Na+] [Sodium_perfluorodecanesulfonate],4.87,,
O=C(O)C(F)(F)C(F)(F)C(F)(F)OC(F)(F)F [Perfluoro(4-methoxybutanoic)_acid],0,,
O=S(=O)(O)C(F)(F)C(F)(F)C(F)(F)C(F)(F)C(F)(F)C(F)(F)C(F)(F)F [Perfluoroheptanesulfonic_acid],0,,
O=S(=O)(OCC(F)(F)F)C(F)(F)C(F)(F)C(F)(F)C(F)(F)F,0,,
O=C(O)C(F)(F)C(F)(F)C(F)(F)C(F)(F)C(F)(F)C(F)(F)C(F)(F)C(F)(F)F [Perfluorononanoic_acid],10.4,,
O=S(=O)(Cl)C(F)(F)C(F)(F)C(F)(F)C(F)(F)C(F)(F)C(F)(F)C(F)(F)C(F)(F)F [Perfluoro-1-octanesulfonyl_chloride],0,,
O=S(=O)(O)C(F)(F)C(F)(F)C(F)(F)C(F)(F)C(F)(F)C(F)(F)C(F)(F)C(F)(F)F [Perfluorooctanesulfonate],0,0.00,
C[N+](C)(C)CCCNS(=O)(=O)C(F)(F)C(F)(F)C(F)(F)C(F)(F)C(F)(F)C(F)(F)C(F)(F)C(F)(F)F,0,,
